Drawing on patent US20250115577A1, “BCL-2 Inhibitors” (Eil Therapeutics, Inc., priority 2021, published 2025), this text covers IC50 for seven molecules.

The target in one experiment is BCL-2 (Homo sapiens (Human), UniProt P10415). Put plainly: BCL-2 TR-FRET Assay (primary PPI inhibition). It counts as binding. Conditions: 60 min incubation, read-out: BCL2 IC50. Here is the method:
Example A. BCL-2 TR-FRET Assay (BPS Bioscience, #50222)
The following assay concentrations and times were used: 3 ng of BCL-2, 5 μL of 1:100 anti-His Tb-labeled donor, 5 μL of 1:100 Dye-labeled acceptor, 5 µL of 1:40 BCL-2 Peptide Ligand, and 2 μL of 200× test compound, with 60 min incubation time (final concentration of DMSO 0.5%). The results of the assay were read using a plate reader with the following parameters: TR FRET, 340ex/620 and 665em; 60 usec Delay; and 500 usec integration.
(§1) Instrumentation: CLARIOstar Plus (BMG LABTECH); Biomek FX for liquid handling (Beckman Coulter).
On the technique in general: Time-resolved FRET reads energy transfer from a long-lived donor to a nearby acceptor.

The target of a further experiment is BCL-xL (Homo sapiens (Human), UniProt Q07817). Put plainly: BCL-xL TR-FRET Assay (primary PPI inhibition). It counts as binding. Conditions: 60 min incubation, read-out: BCLxL IC50. Here is the method:
Example B. BCL-xL TR-FRET Assay (BPS Bioscience, #50223)
The following assay concentrations and times were used: 10.5 ng of BCL-xL, 5 μL of 1:120 anti-His Tb-labeled donor, 5 μL of 1:120 Dye-labeled acceptor, 5 μL of 1:96 BCL-xL Peptide Ligand, 2 μL of 200× test compound, with 60 min incubation time (final concentration of DMSO 0.5%). The results of the assay were read using a plate reader with the following parameters: TR FRET, 340ex/620 and 665em; 60 usec Delay; and 500 usec integration.
as §1

The structures appear in SMILES notation.

Sequence of BCL-xL (Q07817 whole entry): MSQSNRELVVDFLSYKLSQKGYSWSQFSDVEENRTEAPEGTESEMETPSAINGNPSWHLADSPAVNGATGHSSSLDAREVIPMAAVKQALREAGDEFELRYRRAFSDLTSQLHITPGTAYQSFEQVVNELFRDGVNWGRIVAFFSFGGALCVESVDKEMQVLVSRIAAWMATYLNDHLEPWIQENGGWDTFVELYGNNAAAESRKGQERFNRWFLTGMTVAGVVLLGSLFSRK
Sequence of BCL-2 (P10415 whole entry): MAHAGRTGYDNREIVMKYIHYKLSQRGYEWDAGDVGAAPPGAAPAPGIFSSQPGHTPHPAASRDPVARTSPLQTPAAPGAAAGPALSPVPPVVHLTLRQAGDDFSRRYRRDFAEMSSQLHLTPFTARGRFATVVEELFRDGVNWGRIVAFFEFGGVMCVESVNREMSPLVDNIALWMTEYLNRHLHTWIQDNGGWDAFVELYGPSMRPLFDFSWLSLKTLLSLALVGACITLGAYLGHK

As for `COc1cccc(CN(C(=O)c2cc(-c3c(C)cc(Cl)cc3C(=O)N3Cc4ccccc4C[C@H]3CN3CCOCC3)n(C)c2C)c2ccc(O)cc2)c1C` [Compound 50, 5-[4-chloro-2-methyl-6-[(3S)-3-(morpholinomethyl)-3,4-dihydro-1H-isoquinoline-2-carbonyl]phenyl]-N-(4-hydroxyphenyl)-N-[(3-methoxy-2-methyl-phenyl)methyl]-1,2-dimethyl-pyrrole-3-carboxamide], the IC50 (in general, the midpoint of a concentration-inhibition curve) on BCL-2 is greater than 50 nM; at BCL-xL, 2000 to 5000 nM.

On to `COc1cccc(CN(C(=O)c2cc(-c3cc(Cl)c(OC(F)F)cc3C(=O)N3Cc4ccccc4C[C@H]3CN3CCOCC3)n(C)c2C)c2ccc(C#N)cc2)c1C` [Compound 40, 5-[5-chloro-4-(difluoromethoxy)-2-[(3S)-3-(morpholinomethyl)-3,4-dihydro-1H-isoquinoline-2-carbonyl]phenyl]-N-(4-cyanophenyl)-N-[(3-methoxy-2-methyl-phenyl)methyl]-1,2-dimethyl-pyrrole-3-carboxamide], for which the IC50 at BCL-2 is greater than 50 nM; at BCL-xL it was 2000 to 5000 nM.

On to `COc1cccc(CN(C(=O)c2cc(-c3cc([N+](=O)[O-])ccc3C(=O)N3Cc4ccccc4C[C@H]3CN3CCOCC3)n(C)c2C)c2ccc3cn[nH]c3c2)c1C` [Compound 67, N-(1H-indazol-6-yl)-N-[(3-methoxy-2-methyl-phenyl)methyl]-1,2-dimethyl-5-[2-[(3S)-3-(morpholinomethyl)-3,4-dihydro-1H-isoquinoline-2-carbonyl]-5-nitro-phenyl]pyrrole-3-carboxamide], for which the figures for the IC50 at BCL-2 and on BCL-xL were greater than 50 nM and greater than 5000 nM, respectively.

Consider `Cc1c(C(=O)N(Cc2ccccc2C#N)c2ccc3cn[nH]c3c2)cc(-c2cc([N+](=O)[O-])ccc2C(=O)N2Cc3ccccc3C[C@H]2CN2CCOCC2)n1C` [Compound 66, N-[(2-cyanophenyl)methyl]-N-(1H-indazol-6-yl)-1,2-dimethyl-5-[2-[(3S)-3-(morpholinomethyl)-3,4-dihydro-1H-isoquinoline-2-carbonyl]-5-nitro-phenyl]pyrrole-3-carboxamide], for which the IC50 on BCL-2 is greater than 50 nM; at BCL-xL, greater than 5000 nM.

On to `COc1cc(-c2cc(C(=O)N(Cc3ccccc3C#N)c3ccc(Cl)cc3)c(C)n2C)c(C(=O)N2Cc3ccccc3C[C@H]2CN2CCOCC2)cc1C#N` [Compound 59, N-(4-chlorophenyl)-5-[4-cyano-5-methoxy-2-[(3S)-3-(morpholinomethyl)-3,4-dihydro-1H-isoquinoline-2-carbonyl]phenyl]-N-[(2-cyanophenyl)methyl]-1,2-dimethyl-pyrrole-3-carboxamide], for which the IC50 on BCL-2 was greater than 50 nM; on BCL-xL, 2000 to 5000 nM.

For the molecule `COc1cccc(CN(C(=O)c2cc(-c3cc(F)c(OC(F)F)cc3C(=O)N3Cc4ccccc4C[C@H]3CN3CCOCC3)n(C)c2C)c2ccc(C#N)cc2)c1C` [Compound 44, N-(4-cyanophenyl)-5-[4-(difluoromethoxy)-5-fluoro-2-[(3S)-3-(morpholinomethyl)-3,4-dihydro-1H-isoquinoline-2-carbonyl]phenyl]-N-[(3-methoxy-2-methyl-phenyl)methyl]-1,2-dimethyl-pyrrole-3-carboxamide], the IC50 at BCL-2 was greater than 50 nM; on BCL-xL, 2000 to 5000 nM.

Regarding `COc1cc(-c2cc(C(=O)N(Cc3cccc(OC)c3C)c3ccc(Cl)cc3)c(C)n2C)c(C(=O)N2Cc3ccccc3C[C@H]2CN2CCOCC2)cc1C#N` [Compound 60, N-(4-chlorophenyl)-5-[4-cyano-5-methoxy-2-[(3S)-3-(morpholinomethyl)-3,4-dihydro-1H-isoquinoline-2-carbonyl]phenyl]-N-[(3-methoxy-2-methyl-phenyl)methyl]-1,2-dimethyl-pyrrole-3-carboxamide], the figures for the IC50 on BCL-2 and on BCL-xL were greater than 50 nM and 2000 to 5000 nM, respectively.
